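These data come from cells grown in 96-well plates and exposed to compound for 48 hours at five concentrations. GI50: concentration for 50% inhibition of growth.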 Activity calls are given as the source filed them. Rule as the data show it: active = GI50 up to about 1.1 µM and inactive = higher.

Some test systems named below: UO-31; NCI/ADR-RES; MDA-N; K562; SK-MEL-2; T47D; RXF 393; NCI-H522; OVCAR-3; KM12; UACC-62; RPMI-8226; 786-0; COLO 205; NCI-H23; LOX IMVI; OVCAR-8; SW-620; HCC 2998; OVCAR-4.
Experiment in all cases: inhibition of tumour cell growth, NCI panel, 48 h

With `Cc1ccc2c(O)cc(-c3csc4ccccc34)nc2n1`, the GI50 in the experiment with UO-31 was 0.0138 µM (active); with NCI/ADR-RES it was < 0.01 µM (active); with MDA-N it was < 0.01 µM (active); with K562 it was < 0.01 µM (active); in the experiment on SK-MEL-2, 0.0139 µM (active); with T47D it was 21.2 µM (inactive). For the same compound, the GI50 was < 0.01 µM (active) in the experiment on RXF 393; < 0.01 µM (active) in the experiment on NCI-H522; < 0.01 µM (active) in the experiment on OVCAR-3; < 0.01 µM (active) in the experiment on KM12; < 0.0122 µM (active) with UACC-62; < 0.01 µM (active) in the experiment with RPMI-8226. Besides, the GI50 in the experiment with 786-0 is < 0.01 µM (active); in the experiment on COLO 205, 0.0239 µM (active); in the experiment with NCI-H23 it was 0.0274 µM (active); in the experiment on LOX IMVI, < 0.0115 µM (active); in the experiment on OVCAR-8, 0.0202 µM (active); in the experiment on SW-620 it was < 0.01 µM (active).
Turning to `COc1cc(C(CN)N(C)C)cc(OC)c1OC` (stereo unspecified), the GI50 with HCC 2998, in the experiment on UO-31, with OVCAR-4, in the experiment on NCI/ADR-RES, with MDA-N and with K562 was > 100 µM (inactive) each time. In addition, the GI50 with T47D, in the experiment with RXF 393, in the experiment on NCI-H522, with OVCAR-3, in the experiment on KM12 and in the experiment with UACC-62 was > 100 µM (inactive) throughout. Besides, the GI50 in the experiment on 786-0 is > 100 µM (inactive); with COLO 205 it was 77.8 µM (inactive); in the experiment on NCI-H23, > 100 µM (inactive); with LOX IMVI it was > 100 µM (inactive); in the experiment with OVCAR-8 it was > 100 µM (inactive); in the experiment on SW-620, > 100 µM (inactive).
As for `COC(=O)c1c(O)ccc2c1c1cc3ccccc3c(O)c1n2CCc1ccc(OC)c(OC)c1`, the GI50 in the experiment on HCC 2998 is 27.4 µM (inactive); in the experiment on UO-31 it was 84.1 µM (inactive); in the experiment on OVCAR-4 it was 42.1 µM (inactive); in the experiment on NCI/ADR-RES it was 51.6 µM (inactive); in the experiment with MDA-N, 57.7 µM (inactive); in the experiment on K562 it was 87.1 µM (inactive). Also, the GI50 is 58.2 µM (inactive) in the experiment with SK-MEL-2; 42.9 µM (inactive) in the experiment with T47D; > 100 µM (inactive) with RXF 393; 21.1 µM (inactive) with NCI-H522; 68.2 µM (inactive) with OVCAR-3; 51.3 µM (inactive) with KM12. The GI50 in the experiment with UACC-62 is > 100 µM (inactive); in the experiment on RPMI-8226 it was 18.9 µM (inactive); in the experiment on 786-0 it was 91.8 µM (inactive); in the experiment on COLO 205, 15.5 µM (inactive); in the experiment on NCI-H23 it was 93.1 µM (inactive); in the experiment with OVCAR-8 it was 63.4 µM (inactive).
Turning to `NCCCNOCCCN`, the GI50 with HCC 2998, in the experiment with UO-31, with OVCAR-4, in the experiment with NCI/ADR-RES, in the experiment on MDA-N and in the experiment with K562 was > 100 µM (inactive) throughout. Besides, the GI50 with SK-MEL-2, in the experiment with T47D, with RXF 393, with NCI-H522, in the experiment on OVCAR-3 and in the experiment with KM12 was > 100 µM (inactive) in each case. Also, the GI50 in the experiment on UACC-62, in the experiment on RPMI-8226, in the experiment with 786-0, with COLO 205, in the experiment on NCI-H23 and in the experiment on OVCAR-8 was > 100 µM (inactive) throughout. Besides, in the experiment with SW-620, the GI50 is > 100 µM (inactive).
Consider `CC(O)(Cc1ccccc1C#N)Cc1ccccc1C#N`, for which the GI50 in the experiment on HCC 2998 was > 100 µM (inactive); in the experiment with OVCAR-4 it was 54.2 µM (inactive); in the experiment on NCI/ADR-RES, 27.9 µM (inactive); in the experiment on MDA-N it was > 100 µM (inactive); with K562 it was 50 µM (inactive); with SK-MEL-2, > 100 µM (inactive). The GI50 with T47D was 37.6 µM (inactive); in the experiment on RXF 393 it was > 100 µM (inactive); with NCI-H522, > 100 µM (inactive); in the experiment with OVCAR-3, 65.6 µM (inactive); in the experiment with KM12, 51.5 µM (inactive); in the experiment with UACC-62 it was 59.8 µM (inactive). The GI50 with 786-0 is > 100 µM (inactive); with COLO 205, 70.8 µM (inactive); with LOX IMVI, > 100 µM (inactive); in the experiment on OVCAR-8, 54.7 µM (inactive); in the experiment on SW-620 it was > 100 µM (inactive).
Consider `CC(=O)Oc1ccc(OC(Oc2ccccc2)c2ccccc2)cc1` (stereo unspecified), for which the GI50 is 14.7 µM (inactive) in the experiment on HCC 2998; 26.8 µM (inactive) in the experiment with UO-31; 33.7 µM (inactive) with OVCAR-4; 50.9 µM (inactive) in the experiment on NCI/ADR-RES; 21.3 µM (inactive) in the experiment on MDA-N; 51.4 µM (inactive) with K562. Also, the GI50 in the experiment with T47D was 39.9 µM (inactive); in the experiment with RXF 393, 26.1 µM (inactive); with NCI-H522, 42.6 µM (inactive); in the experiment on OVCAR-3 it was 21.2 µM (inactive); with KM12, 23.2 µM (inactive); with UACC-62, 20.7 µM (inactive). Moreover, the GI50 with 786-0 was 23.8 µM (inactive); in the experiment with COLO 205, 40.7 µM (inactive); with NCI-H23 it was 17.7 µM (inactive); in the experiment on LOX IMVI it was 21.6 µM (inactive); in the experiment on OVCAR-8 it was 37.9 µM (inactive); with SW-620, 38.6 µM (inactive).
Regarding `Clc1cc2nnn(C3CCCO3)c2cc1Cl` (stereo unspecified), the GI50 in the experiment with HCC 2998, in the experiment with NCI/ADR-RES, in the experiment with MDA-N, in the experiment with K562, with SK-MEL-2 and in the experiment with T47D was > 100 µM (inactive) in each case. Besides, the GI50 with RXF 393, in the experiment on NCI-H522, in the experiment on OVCAR-3, with UACC-62, in the experiment on 786-0 and in the experiment on COLO 205 was > 100 µM (inactive) each time. The figures for the GI50 with NCI-H23 and in the experiment on OVCAR-8 were 60.1 µM (inactive) and > 100 µM (inactive), respectively.
In the case of `CN/C(=N\CCSCc1nc[nH]c1C)NC#N` [CIMETIDINE], the GI50 in the experiment with HCC 2998 was > 100 µM (inactive); in the experiment with UO-31, > 100 µM (inactive); with OVCAR-4 it was 99.5 µM (inactive); with NCI/ADR-RES, > 100 µM (inactive); with MDA-N, > 100 µM (inactive); with K562, > 100 µM (inactive). For the same compound, the GI50 with SK-MEL-2, in the experiment on T47D, in the experiment on RXF 393, in the experiment on NCI-H522, with OVCAR-3 and in the experiment with KM12 was > 100 µM (inactive) throughout. Besides, the GI50 in the experiment on UACC-62, in the experiment with 786-0, in the experiment with COLO 205, with NCI-H23, with LOX IMVI and with OVCAR-8 was > 100 µM (inactive) each time. The GI50 in the experiment on SW-620 is > 100 µM (inactive).
